Data as given in patent publication US20250312469A1 (CANGET BIOTEKPHARMA, priority 2024, published 2025).
“And” between values parts separate entries of the source, which are not always exact repeats. Identical values can stand only once.

What was measured:
[1] = biological target: DDX5 (Homo sapiens, UniProt P17844); assay: Isothermal titration calorimetry (ITC), Flag-DDX5; type: binding; settings: from ITC KD
[2] = test system: CRPC LAPC9 tumors; assay: LAPC9 CRPC tumor model; type: in vivo, SCID mice; settings: 8 mg/kg orally once per week, 2 times
[3] = type: physicochemical; settings: solid state of powder
[4] = biological target: T1, ABCG2/BCRP (Homo sapiens, UniProt Q9UNQ0); assay: in vitro; settings: for recovery at 120 min, 1 µM: Caco-2, pH 7.4, Recovery (%)
T1 sequence (Q9UNQ0 1-655): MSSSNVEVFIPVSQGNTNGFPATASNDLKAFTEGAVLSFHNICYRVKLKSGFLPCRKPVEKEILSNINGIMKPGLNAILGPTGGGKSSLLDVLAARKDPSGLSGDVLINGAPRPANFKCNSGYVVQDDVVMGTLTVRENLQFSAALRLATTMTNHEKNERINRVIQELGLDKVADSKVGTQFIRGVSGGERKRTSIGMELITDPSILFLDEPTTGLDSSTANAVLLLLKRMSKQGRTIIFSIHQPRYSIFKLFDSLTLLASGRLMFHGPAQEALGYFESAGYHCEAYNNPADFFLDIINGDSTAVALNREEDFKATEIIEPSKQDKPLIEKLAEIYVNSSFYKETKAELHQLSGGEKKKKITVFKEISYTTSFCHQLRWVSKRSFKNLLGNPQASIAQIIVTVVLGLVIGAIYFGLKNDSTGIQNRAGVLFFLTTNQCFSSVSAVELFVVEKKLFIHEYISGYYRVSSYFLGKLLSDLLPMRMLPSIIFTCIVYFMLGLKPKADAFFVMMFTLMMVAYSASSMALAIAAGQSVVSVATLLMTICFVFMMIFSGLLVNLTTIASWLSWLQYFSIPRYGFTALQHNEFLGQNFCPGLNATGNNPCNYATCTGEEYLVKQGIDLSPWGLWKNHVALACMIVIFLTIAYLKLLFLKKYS

[5] = test system: DU145 xenografts; assay: DU145 xenograft tumor model; settings: 8 mg/kg oral, weekly×4
[6] = test system: WP2-uvrA; assay: Ames Bacterial Reverse Mutation Assay; settings: for Background Lawn Code / Colony Counts Average / Colony Counts Replicate 1-3: WP2-uvrA
[7] = PK after single i.v. dose in tumor bearing mice

Chain of DDX5 (P17844 whole entry): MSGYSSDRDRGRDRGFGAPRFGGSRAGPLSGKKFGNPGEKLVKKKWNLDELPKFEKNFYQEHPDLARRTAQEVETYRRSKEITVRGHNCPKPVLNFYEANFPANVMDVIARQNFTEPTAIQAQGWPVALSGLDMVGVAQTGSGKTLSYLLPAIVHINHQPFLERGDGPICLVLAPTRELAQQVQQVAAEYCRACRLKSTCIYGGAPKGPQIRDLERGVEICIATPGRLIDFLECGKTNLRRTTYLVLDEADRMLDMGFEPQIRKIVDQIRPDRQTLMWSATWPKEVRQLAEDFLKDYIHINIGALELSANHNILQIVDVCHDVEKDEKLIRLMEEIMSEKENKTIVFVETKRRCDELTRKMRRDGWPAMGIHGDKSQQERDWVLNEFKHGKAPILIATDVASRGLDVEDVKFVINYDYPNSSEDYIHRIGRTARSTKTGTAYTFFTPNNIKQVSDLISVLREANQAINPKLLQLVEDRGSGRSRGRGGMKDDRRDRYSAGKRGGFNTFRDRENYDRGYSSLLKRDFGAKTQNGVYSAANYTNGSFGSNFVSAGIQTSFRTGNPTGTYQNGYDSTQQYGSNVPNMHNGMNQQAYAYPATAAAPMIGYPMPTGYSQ

For CCC1(O)C(=O)OCc2c1cc1n(c2=O)Cc2cc3cc4c(cc3nc2-1)OCO4 (centres unmarked) [FL118], the “FL118 binding to DDX5 versus Top1 (times stronger)” value [1] was “about 10”, the antitumor efficacy [2] was “sensitive to FL118” and the XRPD [3] was “Weak crystal”. It also gave a Papp A→B at 120 min, 1 μM ([4]; Caco-2, pH 7.4, Papp AVG, Caco-2, A-to-B, first FL118 entry (without Ko143)) of 10.7 ×10⁻⁶ cm/s, a Papp A→B at 120 min, 1 μM ([4]; Caco-2, pH 7.4, Papp R1, Caco-2, A-to-B, first FL118 entry (without Ko143)) of 11.2 ×10⁻⁶ cm/s and a Papp A→B at 120 min, 1 μM ([4]; Caco-2, pH 7.4, Papp R2, Caco-2, A-to-B, first FL118 entry (without Ko143)) of 10.3 ×10⁻⁶ cm/s. The recovery at 120 min, 1 µM ([4]; Caco-2, A-to-B, first FL118 entry (without Ko143)) was 57%, the recovery at 120 min, 1 µM ([4]; Caco-2, A-to-B, second FL118 entry (presumably with Ko143)) was 57% and the recovery at 120 min, 1 µM ([4]; Caco-2, B-to-A, second FL118 entry (presumably with Ko143)) was 66%. For the same compound, the antitumor efficacy [5] was “well inhibited”, the bacterial strain mutation [6] was “does not induce” and the “mean revertant colonies over negative control” value ([6]; +/− S9) was “less than 2 fold”. For the same compound, the “Background Lawn Code” value ([6]; 0.010 μM +S9) was 1, the “Colony Counts Average” value ([6]; 0.010 μM +S9) was 40 and the “Colony Counts Replicate 1-3” value ([6]; 0.010 μM +S9) was 38 and 47 and 34. For the same compound, the “Background Lawn Code” value ([6]; 0.010 μM −S9) was 1, the “Colony Counts Average” value ([6]; 0.010 μM −S9) was 29 and the “Colony Counts Replicate 1-3” value ([6]; 0.010 μM −S9) was 35 and 22 and 31. For the same compound, the “Background Lawn Code” value ([6]; 0.10 μM +S9) was 1, the “Colony Counts Average” value ([6]; 0.10 μM +S9) was 47 and the “Colony Counts Replicate 1-3” value ([6]; 0.10 μM +S9) was 48 and 38 and 54. For the same compound, the “Background Lawn Code” value ([6]; 0.10 μM −S9) was 1, the “Colony Counts Average” value ([6]; 0.10 μM −S9) was 30 and the “Colony Counts Replicate 1-3” value ([6]; 0.10 μM −S9) was 27 (2×) and 36. For the same compound, the “Background Lawn Code” value ([6]; 1.0 μM +S9) was 1, the “Colony Counts Average” value ([6]; 1.0 μM +S9) was 39 and the “Colony Counts Replicate 1-3” value ([6]; 1.0 μM +S9) was 35 and 38 and 43. For the same compound, the “Background Lawn Code” value ([6]; 1.0 μM −S9) was 1, the “Colony Counts Average” value ([6]; 1.0 μM −S9) was 27 and the “Colony Counts Replicate 1-3” value ([6]; 1.0 μM −S9) was 27 and 31 and 24. For the same compound, the Vz ([7]; FaDu tumor) was 33052 g/kg and the Vz ([7]; SW620 tumor) was 30742 g/kg.
